Data reported in US20210395210A1, “INHIBITION OF BACTERIAL CHAPERONIN SYSTEMS” (THE TRUSTEES OF INDIANA UNIVERSITY, priority 2018, published 2021).
Read-outs that look alike come from different tables or passages of the source.

Key:
[1] = system: Pseudomonas aeruginosa (ATCC 10145); experiment: Bacterial proliferation assay, P. aeruginosa; assay type: cell-based
From the text: (§1) Bacterial Strains: Enterococcus faecium—(Orla-Jensen) Schleifer and Kilpper-Balz strain NCTC 7171 (ATCC 19434); Drug sensitive Staphylococcus aureus—Rosenbranch strain Seattle 1945 (ATCC 25923); Methicillin resistant S. aureus (MRSA)—Rosenbach strain HPV107 (ATCC BAA-44); Klebsiella Pneumonia—(Schroeter) Trevisan strain NCTC 9633 (ATCC 13883); Acinetobacter baumannii—Bouvet and Grimont strain 2208 (ATCC 19606); Pseudomonas aeruginosa—(Schroeter) Migula strain NCTC 10332 (ATCC 10145); Enterobacter cloacae—E. cloacae, subsp. cloacae (Jordan) Hormaeche and Edwards strain CDC 442-68 (ATCC 13047).
(§2) Growth Media: All bacteria were grown in Brain Heart Infusion (BHI) broth/agar (Becton, Dickinson and Company). All liquid cultures were grown in BHI media supplemented with 25 mg/L Ca^2+ and 12.5 mg/L Mg^2+ to mimic free physiological concentrations of these cations. A 10 mg/mL Ca^2+ stock solution was prepared by dissolving 3.68 g of CaCl2.2H2O in 100 mL of deionized water, and a 10 mg/mL Mg^2+ stock solution was prepared by dissolving 8.36 g of MgCl2.6H2O in 100 mL deionized water. Both stock solutions were filter-sterilized using 0.2 μm pore size cellulose-acetate filters. 2.5 mL of the sterile 10 mg/mL Ca^2+ stock and 1.25 mL of the sterile 10 mg/mL Mg^2+ stock solutions were added per 1 L of autoclaved BHI medium to obtain 25 mg/L Ca^2+ and 12.5 mg/L Mg^2+ ions, respectively.
(§3) General Assay Protocol: Stock bacterial cultures were streaked onto BHI agar plates and grown overnight at 37° C. Fresh aliquots of broth were inoculated with single bacterial colonies and the cultures were grown overnight at 37° C. with shaking (240 rpm) in cation adjusted BHI media. The following morning, the overnight cultures were sub-cultured (1:5 dilution) into fresh aliquots of cation adjusted BHI media and grown at 37° C. for 1-2 hours with shaking. After 2 h, cultures were diluted into fresh media to achieve final OD600 readings of 0.017. Aliquots of these diluted cultures (30 μL) were added to clear, flat-bottom, 384-well polystyrene plates that were stamped with 0.5 μL of test compounds in 20 μL media. […] Plates were sealed with “Breathe Easy” oxygen permeable membranes (Diversified Biotech) and left to incubate at 37° C. without shaking (stagnant assay). OD600 nm readings were taken at either 6-8 h (S. aureus, MRSA, K. pneumonia, E. cloacae, and P. aeruginosa) or 24 h (E. faecium and A. baumannii). A second set of baseline control plates were prepared analogously, but without any bacteria added, to correct for possible compound absorbance and/or precipitation. Plates were then read at 600 nm using a Molecular Devices SpectraMax Plus384 microplate reader. […] Results presented represent the averages of EC50 values obtained from at quadriplicate (duplicate of duplicate) replicates.

[2] = system: Enterobacter cloacae (ATCC 13047); experiment: Bacterial proliferation assay, E. cloacae; assay type: cell-based
From the text: as §1, §2, §3

[3] = system: Drug sensitive Staphylococcus aureus (ATCC 25923); experiment: Bacterial proliferation assay, drug sensitive S. aureus; assay type: cell-based
From the text: as §1, §2, §3

[4] = target: T1, human HSP60/10 (Homo sapiens, UniProt P10809); experiment: HSP60/10-mediated dMDH refolding assay; assay type: biochemical
T1 construct: octa-Histidine tag (TEV-cleavable) (N, cleaved yes); made in house; host or cells: HSP60 in E. coli Rosetta 2 (DE3); HSP10 in Rosetta 2 (DE3) pLysS
Procedure: Reagent preparation: For these assays, four primary reagent stocks were prepared: 1) GroEUES-dMDH or HSP60/10-dMDH binary complex stock; 2) ATP initiation stock; 3) EDTA quench stock; 4) MDH enzymatic assay stock. Denatured MDH (dMDH) was prepared by 2-fold dilution of MDH (5 mg/ml, soluble pig heart MDH from Roche, product #10127248001) with denaturant buffer (7 M guanidine-HCl, 200 mM Tris, pH 7.4, and 50 mM DTT). MDH was completely denatured by incubating at room temperature for 45 min. The binary complex solutions were prepared by slowly adding the dMDH stock to a stirring stock with GroEL (or HSP60) in folding buffer (50 mM Tris-HCl, pH 7.4, 50 mM KCl, 10 mM MgCl2, and 1 mM DTT), followed by addition of GroES (or HSP10). The binary complex stocks were prepared immediately prior to dispensing into the assay plates and had final protein concentrations of 83.3 nM GroEL (Mr 800 kDa) or HSP60 (Mr 400 kDa), 100 nM GroES or HSP10 (Mr 70 kDa), and 20 nM dMDH in folding buffer. For the ATP initiation stock, ATP solid was diluted into folding buffer to a final concentration of 2.5 mM. Quench solution contained 600 mM EDTA (pH 8.0). The MDH enzymatic assay stock consisted of 20 mM sodium mesoxalate and 2.4 mM NADH in reaction buffer (50 mM Tris-HCl, pH 7.4, 50 mM KCl, and 1 mM DTT).
Assay Protocol: First, 30 μL aliquots of the GroEL/ES-dMDH or HSP60/10-dMDH binary complex stocks were dispensed into clear, 384-well polystyrene plates. […] The chaperonin-mediated refolding cycles were initiated by addition of 20 μL of ATP stock (reagent concentrations during refolding cycle: 50 nM GroEL or HSP60, 60 nM GroES or HSP10, 12 nM dMDH, 1 mM ATP, and compounds of 100 μM to 46 nM, 3-fold dilution series). The refolding reactions were incubated at 37° C. […] Next, the assay was quenched by addition of 10 μL of the EDTA to final concentration of 100 mM. […] A340 nm measurements were recorded at 0.5 minutes (start point) and at successive time points until the amount of NADH consumed reached ˜90% (end point, generally between 20-35 minutes). The differences between the start and end point A340 values were used to calculate the % inhibition of the GroEL/ES or HSP60/10 machinery by the compounds. […] Results presented represent the averages of IC50 values obtained from at least quadriplicate (duplicate of duplicate) replicates.

[5] = ATCC10145, read-out: Bacterial Proliferation EC50 P. aeruginosa
[6] = ATCC10145, read-out: log(EC50) Bacterial Proliferation Assay P. aeruginosa (converted)
[7] = ATCC13047, read-out: Bacterial Proliferation EC50 E. cloacae
[8] = ATCC13047, read-out: log(EC50) Bacterial Proliferation Assay E. cloacae (converted)
[9] = ATCC25923, read-out: Bacterial Proliferation EC50 S. aureus Sensitive
[10] = ATCC25923, read-out: log(EC50) Bacterial Proliferation Assay S. aureus Sensitive (converted)
[11] = human HSP60/10-dMDH refolding assay, read-out: HSP60/10-dMDH Refolding IC50
[12] = log(IC50) ± standard deviation, human HSP60/10-dMDH refolding assay, read-out: HSP60/10-dMDH Refolding Assay log(IC50) (converted)
[13] = ATCC10145, OD600 at 6-8 h, read-out: Bacterial Proliferation EC50 P. aeruginosa
[14] = ATCC10145, log of EC50 (μM scale), with standard deviation, read-out: log(EC50) Bacterial Proliferation Assay P. aeruginosa (converted)
[15] = ATCC13047, OD600 at 6-8 h, read-out: Bacterial Proliferation EC50 E. cloacae
[16] = ATCC13047, log of EC50 (μM scale), with standard deviation, read-out: log(EC50) Bacterial Proliferation Assay E. cloacae (converted)
[17] = ATCC25923, OD600 at 6-8 h, read-out: Bacterial Proliferation EC50 S. aureus Sensitive
[18] = ATCC25923, log of EC50 (μM scale), with standard deviation, read-out: log(EC50) Bacterial Proliferation Assay S. aureus Sensitive (converted)

T1 sequence (P10809 27-573): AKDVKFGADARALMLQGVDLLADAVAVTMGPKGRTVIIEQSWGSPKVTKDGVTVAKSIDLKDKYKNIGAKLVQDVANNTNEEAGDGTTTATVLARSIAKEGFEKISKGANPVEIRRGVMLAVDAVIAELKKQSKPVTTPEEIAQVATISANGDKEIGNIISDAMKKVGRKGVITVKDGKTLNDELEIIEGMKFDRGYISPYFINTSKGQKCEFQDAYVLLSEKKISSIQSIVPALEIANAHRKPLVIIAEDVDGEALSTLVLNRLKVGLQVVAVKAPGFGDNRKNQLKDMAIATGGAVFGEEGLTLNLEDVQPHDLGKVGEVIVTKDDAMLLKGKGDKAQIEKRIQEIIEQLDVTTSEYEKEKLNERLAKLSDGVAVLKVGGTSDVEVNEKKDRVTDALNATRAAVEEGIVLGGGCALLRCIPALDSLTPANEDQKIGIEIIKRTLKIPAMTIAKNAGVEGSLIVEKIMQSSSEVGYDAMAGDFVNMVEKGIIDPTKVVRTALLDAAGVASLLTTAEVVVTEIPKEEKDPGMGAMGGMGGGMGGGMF

Structure (SMILES) | EC50 [1, 5] | EC50 [1, 6] | EC50 [2, 7] | EC50 [2, 8] | EC50 [3, 9] | EC50 ([3]; ATCC25923, read-out: S. aureus Proliferation & Biofilm Assay EC50 Planktonic Growth) | EC50 [3, 10] | IC50 [4, 11] | IC50 [4, 12] | EC50 [1, 13] | EC50 [1, 14] | EC50 [2, 15] | EC50 [2, 16] | EC50 [3, 17] | EC50 [3, 18] | IC50 [4] | HSP60/10-dMDH Refolding Assay log(IC50) ([4]; log(IC50) ± standard deviation, human HSP60/10-dMDH refolding assay)
O=C(Nc1cccc(Cl)c1)c1cc(Br)ccc1O [Compound 11, 5-Bromo-N-(3-chlorophenyl)-2-hydroxybenzamide] | > 100 µM | > 100 µM | > 100 µM | > 100 µM | 0.46 µM | 0.46 µM | 0.457 µM | > 100 µM | > 100 µM |  |  |  |  |  |  |  | 
O=C(Nc1cccc(Cl)c1)c1ccccc1O [Compound 12, N-(3-Chlorophenyl)-2-hydroxybenzamide] |  |  |  |  |  |  |  | > 100 µM | > 100 µM | > 100 µM | > 100 µM | > 100 µM | > 100 µM | 3.1 µM | 3.09 µM |  | 
O=C(Nc1ccccc1)c1cc(Br)cc(Br)c1O [Compound 13, 3,5-Dibromo-2-hydroxy-N-phenylbenzamide] | > 100 µM | > 100 µM | > 100 µM | > 100 µM | 1.2 µM |  | 1.23 µM | 63 µM | 63.1 µM |  |  |  |  |  |  |  | 
O=C(Nc1ccccc1)c1cccc(Br)c1O [Compound 14, 3-Bromo-2-hydroxy-N-phenylbenzamide] |  |  |  |  |  |  |  | > 100 µM | > 100 µM | > 100 µM | > 100 µM | > 100 µM | > 100 µM | 6.4 µM | 6.46 µM |  | 
O=C(Nc1ccccc1)c1cc(Br)ccc1O [Compound 15, 5-Bromo-2-hydroxy-N-phenylbenzamide] |  |  |  |  |  |  |  | > 100 µM | > 100 µM | > 100 µM | > 100 µM | > 100 µM | > 100 µM | 2.8 µM | 2.75 µM |  | 
O=C(Nc1ccccc1)c1ccccc1O [Compound 16, 2-Hydroxy-N-phenylbenzamide] | > 100 µM | > 100 µM | > 100 µM | > 100 µM | 28 µM |  | 27.5 µM |  |  |  |  |  |  |  |  | > 100 µM | >2
O=C(Nc1ccc(Sc2nc3ccccc3s2)c(Cl)c1)c1cc(Br)cc(Br)c1 [Compound 17, N-(4-(Benzo[d]thiazol-2-ylthio)-3-chlorophenyl)-3,5-dibromobenzamide] |  |  |  |  |  |  |  | > 100 µM | > 100 µM | > 100 µM | > 100 µM | > 100 µM | > 100 µM | > 100 µM | > 100 µM |  | 
O=C(Nc1ccc(Sc2nc3ccccc3s2)c(Cl)c1)c1cccc(Br)c1 [Compound 18, N-(4-(Benzo[d]thiazol-2-ylthio)-3-chlorophenyl)-3-bromobenzamide] |  |  |  |  |  |  |  | > 100 µM | > 100 µM | > 100 µM | > 100 µM | > 100 µM | > 100 µM | > 100 µM | > 100 µM |  | 
O=C(Nc1ccc(Sc2nc3ccccc3s2)c(Cl)c1)c1ccccc1 [Compound 19, N-(4-(Benzo[d]thiazol-2-ylthio)-3-chlorophenyl)benzamide] |  |  |  |  |  |  |  | > 100 µM | > 100 µM | > 100 µM | > 100 µM | > 100 µM | > 100 µM | 43 µM | 42.7 µM |  | 
O=C(Nc1ccc(Sc2nc3ccccc3s2)cc1)c1cc(Br)cc(Br)c1 [Compound 20, N-(4-(Benzo[d]thiazol-2-ylthio)phenyl)-3,5-dibromobenzamide] |  |  |  |  |  |  |  | > 100 µM | > 100 µM | > 100 µM | > 100 µM | > 100 µM | > 100 µM | > 100 µM | > 100 µM |  | 
O=C(Nc1ccc(Sc2nc3ccccc3s2)cc1)c1cccc(Br)c1 [Compound 21, N-(4-(Benzo[d]thiazol-2-ylthio)phenyl)-3-bromobenzamide] |  |  |  |  |  |  |  | > 100 µM | > 100 µM | > 100 µM | > 100 µM | > 100 µM | > 100 µM | > 100 µM | > 100 µM |  | 
O=C(Nc1ccc(Sc2nc3ccccc3s2)cc1)c1ccccc1 [Compound 22, N-(4-(Benzo[d]thiazol-2-ylthio)phenyl)benzamide] |  |  |  |  |  |  |  | > 100 µM | > 100 µM | > 100 µM | > 100 µM | > 100 µM | > 100 µM | > 100 µM | > 100 µM |  | 
O=C(Nc1cccc(Cl)c1)c1cc(Br)cc(Br)c1 [Compound 23, 3,5-Dibromo-N-(3-chlorophenyl)benzamide] |  |  |  |  |  |  |  | > 100 µM | > 100 µM | > 100 µM | > 100 µM | > 100 µM | > 100 µM | 14 µM | 13.8 µM |  | 
O=C(Nc1cccc(Cl)c1)c1cccc(Br)c1 [Compound 24, 3-Bromo-N-(3-chlorophenyl)benzamide] |  |  |  |  |  |  |  | > 100 µM | > 100 µM | > 100 µM | > 100 µM | > 100 µM | > 100 µM | 47 µM | 46.8 µM |  | 
